Measurements as given in ChEMBL document CHEMBL1138399, “Novel poly(ADP-ribose) polymerase-1 inhibitors” (Bioorg Med Chem Lett, 2007).

How the values were obtained:
PC-12 [1] = assay: Maximum recovery of NAD+ in hydrogen peroxide treated PC12 cells at 30 uM relative to control; type: functional, Rattus norvegicus
PC-12 [2] = assay: Recovery of NAD+ in hydrogen peroxide treated PC12 cells at 1 uM relative to control; type: functional, Rattus norvegicus
PC-12 [3] = assay: Maximum recovery of NAD+ in hydrogen peroxide treated PC12 cells at 10 uM relative to control; type: functional, Rattus norvegicus
[4] = molecular target: Poly [ADP-ribose] polymerase 1 (Homo sapiens, UniProt P09874); assay: Inhibition of human recombinant PARP1 in U251MG cells by CometAssay; type: cell-based, U-251
PC-12 [5] = assay: Maximum recovery of NAD+ in hydrogen peroxide treated PC12 cells at 3 uM relative to control; type: functional, Rattus norvegicus

Poly [ADP-ribose] polymerase 1, sequence (P09874 whole entry): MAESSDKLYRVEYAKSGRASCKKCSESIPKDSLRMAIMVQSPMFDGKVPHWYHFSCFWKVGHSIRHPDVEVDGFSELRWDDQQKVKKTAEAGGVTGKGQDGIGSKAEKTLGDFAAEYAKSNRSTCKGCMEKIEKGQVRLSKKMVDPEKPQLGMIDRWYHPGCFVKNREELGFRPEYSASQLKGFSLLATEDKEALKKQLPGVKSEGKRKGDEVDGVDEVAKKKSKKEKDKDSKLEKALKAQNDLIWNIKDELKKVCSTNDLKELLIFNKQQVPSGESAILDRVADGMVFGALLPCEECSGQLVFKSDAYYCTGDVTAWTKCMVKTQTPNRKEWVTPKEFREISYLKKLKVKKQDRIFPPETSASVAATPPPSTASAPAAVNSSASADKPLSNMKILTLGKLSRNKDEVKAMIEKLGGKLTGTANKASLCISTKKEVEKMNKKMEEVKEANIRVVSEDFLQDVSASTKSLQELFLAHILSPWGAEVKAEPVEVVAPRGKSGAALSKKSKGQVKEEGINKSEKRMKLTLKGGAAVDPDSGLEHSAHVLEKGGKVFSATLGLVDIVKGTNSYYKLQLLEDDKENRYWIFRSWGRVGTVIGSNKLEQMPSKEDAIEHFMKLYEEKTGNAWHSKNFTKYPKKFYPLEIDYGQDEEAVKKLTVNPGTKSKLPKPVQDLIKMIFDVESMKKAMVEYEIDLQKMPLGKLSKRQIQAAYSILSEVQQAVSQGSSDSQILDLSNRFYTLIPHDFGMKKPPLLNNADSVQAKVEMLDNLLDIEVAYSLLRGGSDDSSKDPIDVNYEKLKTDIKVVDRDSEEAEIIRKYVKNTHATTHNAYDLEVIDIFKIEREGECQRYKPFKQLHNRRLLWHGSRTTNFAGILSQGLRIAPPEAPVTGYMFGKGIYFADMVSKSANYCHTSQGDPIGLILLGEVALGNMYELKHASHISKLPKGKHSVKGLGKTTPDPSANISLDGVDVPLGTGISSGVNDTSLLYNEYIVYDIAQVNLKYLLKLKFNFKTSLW

Row | SMILES | Activity (PC-12 [1]) [%] | Activity (PC-12 [2]) [%] | Activity (PC-12 [3]) [%] | IC50 [4] [µM] | Activity (PC-12 [5]) [%]
1 | CNc1nc(-c2ccc3[nH]c4c5c(c6c(c4c3c2)C(=O)NC6=O)CCC5)cs1 | 56 | 22 |  |  | 
2 | CC(C)(C)OC(=O)NC(CCCc1nc(-c2ccc3[nH]c4c5c(c6c(c4c3c2)C(=O)NC6=O)CCC5)cs1)C(=O)OC(C)(C)C (configuration not stated) |  | 17 | 27 | 0.046 | 
3 | O=C1NC(=O)c2c1c1c(c3[nH]c4ccc(-c5csc(CNC(=O)C6CCCC6)n5)cc4c23)CCC1 | 29 | 21 |  |  | 
4 | NC(CCCc1nc(-c2ccc3[nH]c4c5c(c6c(c4c3c2)C(=O)NC6=O)CCC5)cs1)C(=O)O.O=C(O)C(F)(F)F (configuration not stated) | 47 | 7 |  | 0.022 | 
5 | Cc1nc(-c2ccc3[nH]c4c5c(c6c(c4c3c2)C(=O)NC6=O)CCC5)c(Br)s1 | 57 | 16 |  |  | 
6 | CCNC(=O)NCc1nc(-c2ccc3[nH]c4c5c(c6c(c4c3c2)C(=O)NC6=O)CCC5)cs1 |  | 15 | 22 |  | 
7 | CCCC(=O)NCc1nc(-c2ccc3[nH]c4c5c(c6c(c4c3c2)C(=O)NC6=O)CCC5)cs1 | 29 | 19 |  |  | 
8 | CC(=O)c1ccc2[nH]c3c4c(c5c(c3c2c1)C(=O)NC5=O)CCC4 | 57 | 35 |  |  | 
9 | O=C1NC(=O)c2c1c1c(c3[nH]c4ccc(-c5csc(CNC(=O)C6CC6)n5)cc4c23)CCC1 | 16 | 11 |  |  | 
10 | CS(=O)(=O)NCc1nc(-c2ccc3[nH]c4c5c(c6c(c4c3c2)C(=O)NC6=O)CCC5)cs1 | 28 | 22 |  | 0.018 | 
11 | CC(=O)NCc1nc(-c2ccc3[nH]c4c5c(c6c(c4c3c2)C(=O)NC6=O)CCC5)cs1 | 51 | 20 |  |  | 
12 | CS(=O)(=O)Cc1nc(-c2ccc3[nH]c4c5c(c6c(c4c3c2)C(=O)NC6=O)CCC5)cs1 | 62 | 16 |  |  | 
13 | CC(C)CC(=O)NCc1nc(-c2ccc3[nH]c4c5c(c6c(c4c3c2)C(=O)NC6=O)CCC5)cs1 | 30 | 13 |  |  | 
14 | O=C(NCc1nc(-c2ccc3[nH]c4c5c(c6c(c4c3c2)C(=O)NC6=O)CCC5)cs1)OCc1ccccc1 | 46 | 17 |  |  | 
15 | CC(C)(C)OC(=O)Cc1nc(-c2ccc3[nH]c4c5c(c6c(c4c3c2)C(=O)NC6=O)CCC5)cs1 | 49 | 20 |  |  | 
16 | O=C(CBr)c1ccc2[nH]c3c4c(c5c(c3c2c1)C(=O)NC5=O)CCC4 | 49 | 32 |  |  | 

Row | SMILES | Activity (PC-12 [1]) [%] | Activity (PC-12 [2]) [%] | Activity (PC-12 [3]) [%] | IC50 [4] [µM] | Activity (PC-12 [5]) [%]
17 | NCc1ccc2[nH]c3c4c(c5c(c3c2c1)C(=O)NC5=O)CCC4 | 100 | 84 |  | 0.018 | 
18 | Cc1sc(N)nc1-c1ccc2[nH]c3c4c(c5c(c3c2c1)C(=O)NC5=O)CCC4 |  | 37 |  |  | 38
19 | CC(C)(C)S(=O)(=O)Cc1nc(-c2ccc3[nH]c4c5c(c6c(c4c3c2)C(=O)NC6=O)CCC5)cs1 | 51 | 33 |  |  | 
20 | CCCCC(=O)NCc1nc(-c2ccc3[nH]c4c5c(c6c(c4c3c2)C(=O)NC6=O)CCC5)cs1 | 34 | 15 |  |  | 
21 | O=C1NC(=O)c2c1c1c(c3[nH]c4ccccc4c23)CCC1 |  | 30 |  |  | 
22 | N=C(N)Nc1nc(-c2ccc3[nH]c4c5c(c6c(c4c3c2)C(=O)NC6=O)CCC5)cs1 | 53 | 19 |  |  | 
23 | Cc1nc(-c2ccc3[nH]c4c5c(c6c(c4c3c2)C(=O)NC6=O)CCC5)cs1 | 63 | 19 |  |  | 
24 | O=C1NC(=O)c2c1c1c(c3[nH]c4ccc(-c5csc(-c6ccno6)n5)cc4c23)CCC1 | 27 | 11 |  | 0.066 | 
25 | O=C1NC(=O)c2c1c1c(c3[nH]c4ccc(-c5csc(CNC6O[C@H](CO)[C@@H](O)[C@H](O)[C@H]6O)n5)cc4c23)CCC1 (some centres not stated) | 0 | 0 |  | 0.017 | 
26 | Br.NCc1nc(-c2ccc3[nH]c4c5c(c6c(c4c3c2)C(=O)NC6=O)CCC5)cs1 |  | 20 | 41 |  | 
27 | CC(C)(C)C(=O)OCc1nc(-c2ccc3[nH]c4c5c(c6c(c4c3c2)C(=O)NC6=O)CCC5)cs1 | 27 | 14 |  |  | 
28 | CC(=O)Nc1nc(-c2ccc3[nH]c4c5c(c6c(c4c3c2)C(=O)NC6=O)CCC5)cs1 | 34 | 10 |  |  | 
29 | CCC(=O)NCc1nc(-c2ccc3[nH]c4c5c(c6c(c4c3c2)C(=O)NC6=O)CCC5)cs1 | 20 | 16 |  |  | 
30 | Nc1nc(-c2ccc3[nH]c4c5c(c6c(c4c3c2)C(=O)NC6=O)CCC5)cs1 | 100 | 48 |  |  | 
31 | CC(C)C(=O)NCc1nc(-c2ccc3[nH]c4c5c(c6c(c4c3c2)C(=O)NC6=O)CCC5)cs1 | 33 | 10 |  |  | 
